Experimental data: the supplement of paper PMC8967900
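Further: ALL cell lines in 384-well plates, five doses spanning 10,000-fold, each plate scaled between vehicle and 100 µmol/L benzalkonium chloride controls, sDSS an adapted area-under-curve metric.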

The compounds below were run on MOLT-4 (assay: selective drug sensitivity score (sDSS, relative to normal bone marrow) (sDSS (score)); higher = more potent and effective on the cell line relative to normal bone marrow cells). Conditions: 72 h.
Cc1ccc(NC(=O)c2ccc(CN3CCN(C)CC3)cc2)cc1Nc1nc(-c2cccnc2)cs1 [Masitinib] (top concentration 10000 nM) was tested, and the “selective drug sensitivity score” value was -0.38.
CCN(CC)CCCC(C)Nc1c2ccc(Cl)cc2nc2ccc(OC)cc12 (stereo not given) [Mepacrine] (top concentration 50000 nM) was tested, and the “selective drug sensitivity score” value was -0.6.
COc1ccc(-c2ccc3ncc4c(c3c2)n(-c2ccc(N3CCNCC3)c(C(F)(F)F)c2)c(=O)n4C)cn1 [NVP-BGT226] (top concentration 1000 nM) was tested, and the “selective drug sensitivity score” value was 5.42.
For COc1nc(N)nc2c1ncn2[C@@H]1O[C@H](CO)[C@@H](O)[C@@H]1O [Nelarabine] (top concentration 10000 nM), the “selective drug sensitivity score” value was -0.72.
In the case of Cc1cn(-c2cc(NC(=O)c3ccc(C)c(Nc4nccc(-c5cccnc5)n4)c3)cc(C(F)(F)F)c2)cn1 [Nilotinib] (top concentration 10000 nM), the “selective drug sensitivity score” value is reported as 3.6.
NC(=O)c1cccc2cn(-c3ccc(C4CCCNC4)cc3)nc12 (stereo not given) [Niraparib] (top concentration 10000 nM) was tested, and the “selective drug sensitivity score” value was 3.58.
With COc1ccc(C[C@H](NC(=O)[C@H](C)NC(=O)CN2CCOCC2)C(=O)N[C@@H](Cc2ccccc2)C(=O)[C@@]2(C)CO2)cc1 [ONX-0914] (top concentration 10000 nM) the “selective drug sensitivity score” value was 1.9.
In the case of CC(=O)c1cnc2ccc(-c3cc(Cl)c(O)c(Cl)c3)nc2c1N[C@H]1CC[C@H](CN(C)C)CC1 [OTS167] (top concentration 1000 nM), the “selective drug sensitivity score” value is reported as -1.32.
In the case of COC(=O)C[C@](O)(CCCC(C)(C)O)C(=O)O[C@@H]1C(OC)=C[C@]23CCCN2CCc2cc4c(cc2[C@H]13)OCO4 [Omacetaxine] (top concentration 10000 nM), the “selective drug sensitivity score” value is reported as 3.32.

What follows are compounds tested on NALM-16 in the same assay as above. Conditions: 72 h.
In the case of CCOC(=O)CCNc1cc(N2CCc3ccccc3CC2)nc(-c2ccccn2)n1 [GSK-J4] (top concentration 100000 nM), the “selective drug sensitivity score” value is reported as -8.38.
For Cc1cc(Nc2cc(CN3CCOCC3)c3nc(C)c(Cc4ccc(Cl)cc4F)n3n2)n[nH]1 [Gandotinib] (top concentration 10000 nM), the “selective drug sensitivity score” value was -1.52.
For NC(=O)NO [Hydroxyurea] (top concentration 1000000 nM), the “selective drug sensitivity score” value was 0.86.
Cc1ccc(NC(=O)c2ccc(CN3CCN(C)CC3)cc2)cc1Nc1nccc(-c2cccnc2)n1 [Imatinib] (top concentration 10000 nM) was tested, and the “selective drug sensitivity score” value was -0.44.
With CC(C)NC[C@@H](C(=O)N1CCN(c2ncnc3c2[C@H](C)C[C@H]3O)CC1)c1ccc(Cl)cc1 [Ipatasertib] (top concentration 10000 nM) the “selective drug sensitivity score” value was 1.7.
CCC(C)n1ncn(-c2ccc(N3CCN(c4ccc(OCC5COC(Cn6cncn6)(c6ccc(Cl)cc6Cl)O5)cc4)CC3)cc2)c1=O (stereo not given) [Itraconazole] (top concentration 5000 nM) was tested, and the “selective drug sensitivity score” value was -4.32.
In the case of Cc1sc2c(c1C)C(c1ccc(Cl)cc1)=N[C@@H](CC(=O)OC(C)(C)C)c1nnc(C)n1-2 [JQ1] (top concentration 10000 nM), the “selective drug sensitivity score” value is reported as 2.02.
CCNC(=O)c1noc(-c2cc(C(C)C)c(O)cc2O)c1-c1ccc(CN2CCOCC2)cc1 [Luminespib] (top concentration 1000 nM) was tested, and the “selective drug sensitivity score” value was -2.9.
For O=C(c1cccc(Cl)c1F)N1CCN(Cc2cccc(Nc3nccs3)n2)CC1 [MK-8745] (top concentration 10000 nM), the “selective drug sensitivity score” value was 12.4.
With Cc1ccc(NC(=O)c2ccc(CN3CCN(C)CC3)cc2)cc1Nc1nc(-c2cccnc2)cs1 [Masitinib] (top concentration 10000 nM) the “selective drug sensitivity score” value was -4.38.
In the case of CCN(CC)CCCC(C)Nc1c2ccc(Cl)cc2nc2ccc(OC)cc12 (stereo not given) [Mepacrine] (top concentration 50000 nM), the “selective drug sensitivity score” value is reported as -7.9.
COc1ccc(-c2ccc3ncc4c(c3c2)n(-c2ccc(N3CCNCC3)c(C(F)(F)F)c2)c(=O)n4C)cn1 [NVP-BGT226] (top concentration 1000 nM) was tested, and the “selective drug sensitivity score” value was -0.18.
In the case of COc1nc(N)nc2c1ncn2[C@@H]1O[C@H](CO)[C@@H](O)[C@@H]1O [Nelarabine] (top concentration 10000 nM), the “selective drug sensitivity score” value is reported as -9.52.
In the case of Cc1cn(-c2cc(NC(=O)c3ccc(C)c(Nc4nccc(-c5cccnc5)n4)c3)cc(C(F)(F)F)c2)cn1 [Nilotinib] (top concentration 10000 nM), the “selective drug sensitivity score” value is reported as 0.
For NC(=O)c1cccc2cn(-c3ccc(C4CCCNC4)cc3)nc12 (stereo not given) [Niraparib] (top concentration 10000 nM), the “selective drug sensitivity score” value was -2.82.
With COc1ccc(C[C@H](NC(=O)[C@H](C)NC(=O)CN2CCOCC2)C(=O)N[C@@H](Cc2ccccc2)C(=O)[C@@]2(C)CO2)cc1 [ONX-0914] (top concentration 10000 nM) the “selective drug sensitivity score” value was -2.
For CC(=O)c1cnc2ccc(-c3cc(Cl)c(O)c(Cl)c3)nc2c1N[C@H]1CC[C@H](CN(C)C)CC1 [OTS167] (top concentration 1000 nM), the “selective drug sensitivity score” value was -4.52.
With COC(=O)C[C@](O)(CCCC(C)(C)O)C(=O)O[C@@H]1C(OC)=C[C@]23CCCN2CCc2cc4c(cc2[C@H]13)OCO4 [Omacetaxine] (top concentration 10000 nM) the “selective drug sensitivity score” value was -8.18.

What follows are compounds tested on NALM-6 in the same assay as above. Conditions: 72 h.
For CCOC(=O)CCNc1cc(N2CCc3ccccc3CC2)nc(-c2ccccn2)n1 [GSK-J4] (top concentration 100000 nM), the “selective drug sensitivity score” value was -9.98.
With Cc1cc(Nc2cc(CN3CCOCC3)c3nc(C)c(Cc4ccc(Cl)cc4F)n3n2)n[nH]1 [Gandotinib] (top concentration 10000 nM) the “selective drug sensitivity score” value was 4.58.
In the case of NC(=O)NO [Hydroxyurea] (top concentration 1000000 nM), the “selective drug sensitivity score” value is reported as 2.56.
In the case of Cc1ccc(NC(=O)c2ccc(CN3CCN(C)CC3)cc2)cc1Nc1nccc(-c2cccnc2)n1 [Imatinib] (top concentration 10000 nM), the “selective drug sensitivity score” value is reported as -0.44.
In the case of CC(C)NC[C@@H](C(=O)N1CCN(c2ncnc3c2[C@H](C)C[C@H]3O)CC1)c1ccc(Cl)cc1 [Ipatasertib] (top concentration 10000 nM), the “selective drug sensitivity score” value is reported as 6.2.
With CCC(C)n1ncn(-c2ccc(N3CCN(c4ccc(OCC5COC(Cn6cncn6)(c6ccc(Cl)cc6Cl)O5)cc4)CC3)cc2)c1=O (stereo not given) [Itraconazole] (top concentration 5000 nM) the “selective drug sensitivity score” value was -1.02.
With Cc1sc2c(c1C)C(c1ccc(Cl)cc1)=N[C@@H](CC(=O)OC(C)(C)C)c1nnc(C)n1-2 [JQ1] (top concentration 10000 nM) the “selective drug sensitivity score” value was 4.32.
In the case of CCNC(=O)c1noc(-c2cc(C(C)C)c(O)cc2O)c1-c1ccc(CN2CCOCC2)cc1 [Luminespib] (top concentration 1000 nM), the “selective drug sensitivity score” value is reported as -0.5.
With O=C(c1cccc(Cl)c1F)N1CCN(Cc2cccc(Nc3nccs3)n2)CC1 [MK-8745] (top concentration 10000 nM) the “selective drug sensitivity score” value was 9.6.
In the case of Cc1ccc(NC(=O)c2ccc(CN3CCN(C)CC3)cc2)cc1Nc1nc(-c2cccnc2)cs1 [Masitinib] (top concentration 10000 nM), the “selective drug sensitivity score” value is reported as 0.32.
In the case of CCN(CC)CCCC(C)Nc1c2ccc(Cl)cc2nc2ccc(OC)cc12 (stereo not given) [Mepacrine] (top concentration 50000 nM), the “selective drug sensitivity score” value is reported as -5.5.
With COc1ccc(-c2ccc3ncc4c(c3c2)n(-c2ccc(N3CCNCC3)c(C(F)(F)F)c2)c(=O)n4C)cn1 [NVP-BGT226] (top concentration 1000 nM) the “selective drug sensitivity score” value was 4.32.
COc1nc(N)nc2c1ncn2[C@@H]1O[C@H](CO)[C@@H](O)[C@@H]1O [Nelarabine] (top concentration 10000 nM) was tested, and the “selective drug sensitivity score” value was -4.82.
In the case of Cc1cn(-c2cc(NC(=O)c3ccc(C)c(Nc4nccc(-c5cccnc5)n4)c3)cc(C(F)(F)F)c2)cn1 [Nilotinib] (top concentration 10000 nM), the “selective drug sensitivity score” value is reported as 0.
With NC(=O)c1cccc2cn(-c3ccc(C4CCCNC4)cc3)nc12 (stereo not given) [Niraparib] (top concentration 10000 nM) the “selective drug sensitivity score” value was 1.18.
With COc1ccc(C[C@H](NC(=O)[C@H](C)NC(=O)CN2CCOCC2)C(=O)N[C@@H](Cc2ccccc2)C(=O)[C@@]2(C)CO2)cc1 [ONX-0914] (top concentration 10000 nM) the “selective drug sensitivity score” value was -1.7.
With CC(=O)c1cnc2ccc(-c3cc(Cl)c(O)c(Cl)c3)nc2c1N[C@H]1CC[C@H](CN(C)C)CC1 [OTS167] (top concentration 1000 nM) the “selective drug sensitivity score” value was -1.52.
With COC(=O)C[C@](O)(CCCC(C)(C)O)C(=O)O[C@@H]1C(OC)=C[C@]23CCCN2CCc2cc4c(cc2[C@H]13)OCO4 [Omacetaxine] (top concentration 10000 nM) the “selective drug sensitivity score” value was 4.52.
